According to EP0550775A1, “Cephalosporin derivatives” (F. HOFFMANN-LA ROCHE AG, priority 1992, dated 1993):
Where a name gives a salt, the structure may show the parent alone. Read-outs that look alike come from different tables or passages of the source.

How the values were obtained:
[1] = tested on: Staph. aureus 1059B; test: In vitro MIC, Agar Dilution Method; type: cell-based
Protocol: (§1) In vitro activity of the compounds of the present invention was measured by the Minimum Inhibitory Concentration (MIC) in micrograms/ml utilizing the Agar Dilution Method, which is well known in the art, against a variety of gram-negative and gram-positive organisms.

[2] = tested on: Str. faecalis ATCC 29212; test: In vitro MIC, Agar Dilution Method; type: cell-based
Protocol: as §1

[3] = tested on: Staph. aureus Smith; test: In vitro MIC, Agar Dilution Method; type: cell-based
Protocol: as §1

[4] = tested on: Staph. aureus 753; test: In vitro MIC, Agar Dilution Method; type: cell-based
Protocol: as §1

[5] = tested on: Cit. freundi BS-16; test: In vitro MIC, Agar Dilution Method; type: cell-based
Protocol: as §1

[6] = tested on: Staph. aureus ATCC 29213; test: In vitro MIC, Agar Dilution Method; type: cell-based
Protocol: as §1

[7] = tested on: Ps. aeruginosa 18SH; test: In vitro MIC, Agar Dilution Method; type: cell-based
Protocol: as §1

[8] = tested on: Str. pneumoniae 6301; test: In vitro MIC, Agar Dilution Method; type: cell-based
Protocol: as §1

[9] = tested on: Prot. vulgaris 1028 BC; test: In vitro MIC, Agar Dilution Method; type: cell-based
Protocol: as §1

[10] = tested on: Prot. vulgaris ATCC 6380; test: In vitro MIC, Agar Dilution Method; type: cell-based
Protocol: as §1

[11] = tested on: Ps. aeruginosa 8780; test: In vitro MIC, Agar Dilution Method; type: cell-based
Protocol: as §1

[12] = tested on: Ps. aeruginosa 5712; test: In vitro MIC, Agar Dilution Method; type: cell-based
Protocol: as §1

[13] = tested on: Ps. aeruginosa ATCC 27853; test: In vitro MIC, Agar Dilution Method; type: cell-based
Protocol: as §1

[14] = tested on: Prot. mirabilis 90; test: In vitro MIC, Agar Dilution Method; type: cell-based
Protocol: as §1

[15] = tested on: Ser. marcescens SM; test: In vitro MIC, Agar Dilution Method; type: cell-based
Protocol: as §1

[16] = tested on: Enter. cloacae 5699; test: In vitro MIC, Agar Dilution Method; type: cell-based
Protocol: as §1

[17] = tested on: Str. pyogenes 4; test: In vitro MIC, Agar Dilution Method; type: cell-based
Protocol: as §1

[18] = tested on: K. pneumoniae A; test: In vitro MIC, Agar Dilution Method; type: cell-based
Protocol: as §1

[19] = tested on: Staph. aureus 67; test: In vitro MIC, Agar Dilution Method; type: cell-based
Protocol: as §1

[20] = tested on: Ser. marcescens 1071; test: In vitro MIC, Agar Dilution Method; type: cell-based
Protocol: as §1

[21] = tested on: Ps. aeruginosa 765; test: In vitro MIC, Agar Dilution Method; type: cell-based
Protocol: as §1

[22] = tested on: E. coli 257; test: microbe, parasite or virus in culture; type: cell-based; conditions: agar dilution
Protocol: as §1

[23] = tested on: E. coli ATCC 25922; test: microbe, parasite or virus in culture; type: cell-based
Protocol: as §1

[24] = tested on: E. coli TEM-1; test: microbe, parasite or virus in culture; type: cell-based; conditions: agar dilution
Protocol: as §1

[25] = tested on: Enter. cloacae P99; test: microbe, parasite or virus in culture; type: cell-based; conditions: agar dilution
Protocol: as §1

[26] = Chemical stability (half-life) in phosphate buffer by HPLC; type: physicochemical; conditions: pH 7.4, phosphate buffer (pH7.40; 37°C)
Protocol: Chemical stability (half-life) in phosphate buffer (pH 7.40; 37°C) of some of the compounds of the present invention was determined using high performance liquid chromatography (HPLC). A Hamilton PRP-1 (250 mm x 4.1 mm) column was used with UV detection at 280 nm. The mobile phase used consisted of a 0.01 M solution of tetradecyltrimethylammonium bromide in a mixture of 70% 0.072M phosphate buffer (pH 8.2) and 30% acetonitrile. In some experiments, minor adjustments to the pH and in the acetonitrile concentration were made to improve resolutions.

[27] = Staphylococcus aureus, read-out: MIC
[28] = Pseudomonas aeruginosa, read-out: MIC
[29] = Escherichia coli, read-out: MIC
[30] = Str. faecalis ATCC 29212, agar dilution
[31] = Str. pneumoniae 6301, agar dilution
[32] = Prot. mirabilis 90, agar dilution
[33] = Enter. cloacae 5699, agar dilution
[34] = Staph. aureus 67, agar dilution
[35] = Ser. marcescens 1071, agar dilution

N[C@@H](C(=O)N[C@@H]1C(=O)N2C(C(=O)O)=C(CN3CCN(c4cc5c(cc4F)c(=O)c(C(=O)O)cn5C4CC4)CC3)CS[C@H]12)c1ccccc1 [Compound D, [6R-[6α,7β(R)]]-7-[(Aminophenylacetyl)amino]-3-[[4-(3-carboxy-1-cyclopropyl-6-fluoro-1,4-dihydro-4-oxo-7-quinolinyl)-1-piperazinyl]methyl]-8-oxo-5-thia-1-azabicyclo[4.2.0]oct-2-ene-2-carboxylic acid trifluoroacetic acid salt]
MIC [1, 27]: 1000 µg/mL
MIC ([2]; Enterococcus faecalis, ATCC29212, Str. faecalis ATCC 29212, agar dilution, read-out: MIC): 4000 µg/mL
MIC [3, 27]: 500 µg/mL
MIC [4, 27]: 2000 µg/mL
MIC ([5]; read-out: MIC): 62.5 µg/mL
MIC ([6]; Staphylococcus aureus, ATCC29213, read-out: MIC): 1000 µg/mL
MIC [7, 28]: 1000 µg/mL
MIC ([8]; Streptococcus pneumoniae, Str. pneumoniae 6301, agar dilution, read-out: MIC): 2000 µg/mL
MIC ([9]; Proteus vulgaris, read-out: MIC): 62.5 µg/mL
MIC ([10]; Proteus vulgaris, ATCC6380, read-out: MIC): 62.5 µg/mL
MIC [11, 28]: 1000 µg/mL
MIC [12, 28]: 4000 µg/mL
MIC ([13]; Pseudomonas aeruginosa, ATCC27853, read-out: MIC): 1000 µg/mL
MIC ([14]; Proteus mirabilis, Prot. mirabilis 90, agar dilution, read-out: MIC): 250 µg/mL
MIC ([15]; Serratia marcescens, read-out: MIC): 125 µg/mL
MIC ([16]; Enterobacter cloacae, Enter. cloacae 5699, agar dilution, read-out: MIC): 125 µg/mL
MIC ([17]; Streptococcus pyogenes, Str. pyogenes 4, agar dilution, read-out: MIC): 1000 µg/mL
MIC ([18]; Klebsiella pneumoniae, K. pneumoniae A, agar dilution, read-out: MIC): 31.3 µg/mL
MIC ([19]; Staphylococcus aureus, Staph. aureus 67, agar dilution, read-out: MIC): 2000 µg/mL
MIC ([20]; Serratia marcescens, Ser. marcescens 1071, agar dilution, read-out: MIC): 125 µg/mL
MIC [21, 28]: 2000 µg/mL
MIC [22, 29]: 31.3 µg/mL
MIC ([23]; Escherichia coli, ATCC25922, agar dilution, read-out: MIC): 31.3 µg/mL
MIC [24, 29]: 31.3 µg/mL
MIC ([25]; Enterobacter cloacae, read-out: MIC): 31.3 µg/mL

Nc1nc(/C(=N/OCC(=O)O)C(=O)N[C@@H]2C(=O)N3C(C(=O)[O-])=C(CN4CCN(c5cc6c(cc5F)c(=O)c(C(=O)O)cn6C5CC5)CC4)CS[C@H]23)cs1.[Na+] [Compound B, [6R-[6α,7β(Z)]]-7-[[(2-Amino-4-thiazolyl)[(carboxy-methoxy)imino]acetyl]amino]-3-[[4-(3-carboxy-1-cyclopropyl-6-fluoro-1,4-dihydro-4-oxo-7-quinolinyl)-1-piperazinyl]methyl]-8-oxo-5-thia-1-azabicyclo[4.2.0]oct-2-ene-2-carboxylic acid sodium salt]
MIC [1]: 2000 µg/mL
MIC [2, 30]: 16000 µg/mL
MIC [3]: 8000 µg/mL
MIC [4]: 8000 µg/mL
MIC [5]: 1000 µg/mL
MIC [6]: 8000 µg/mL
MIC [7]: 4000 µg/mL
MIC [8, 31]: 250 µg/mL
MIC [9]: 1000 µg/mL
MIC [10]: 250 µg/mL
MIC [11]: 8000 µg/mL
MIC [12]: 32000 µg/mL
MIC [13]: 16000 µg/mL
MIC [14, 32]: 2000 µg/mL
MIC [15]: 1000 µg/mL
MIC [16, 33]: 1000 µg/mL
MIC ([17]; Str. pyogenes 4, agar dilution): 125 µg/mL
MIC ([18]; K. pneumoniae A, agar dilution): 1000 µg/mL
MIC [19, 34]: 32000 µg/mL
MIC [20, 35]: 2000 µg/mL
MIC [21]: 8000 µg/mL
MIC [22]: 250 µg/mL
MIC ([23]; agar dilution): 500 µg/mL
MIC [24]: 500 µg/mL
MIC [25]: 250 µg/mL

CC(C)(O/N=C(\C(=O)N[C@@H]1C(=O)N2C(C(=O)[O-])=C(CN3CCN(c4cc5c(cc4F)c(=O)c(C(=O)[O-])cn5C4CC4)CC3)CS[C@H]12)c1csc(N)n1)C(=O)NNC(=O)c1ccc(O)c(O)c1.[Na+].[Na+] [Compound G, [6R-[6α,7β(Z)]]-7-[[[(2-Amino-4-thiazolyl)[1-[[(3,4-dihydroxybenzoyl)hydrazino]carbonyl]-1-methylethoxy]imino]acetyl]amino]-3-[[4-(3-carboxy-1-cyclopropyl-6-fluoro-1,4-dihydro-4-oxo-7-quinolinyl)-1-piperazinyl]methyl]-8-oxo-5-thia-1-azabicyclo[4.2.0]oct-2-ene-2-carboxylic acid sodium salt]
MIC [1]: 4000 µg/mL
MIC [2, 30]: 4000 µg/mL
MIC [3]: 2000 µg/mL
MIC [4]: 4000 µg/mL
MIC [5]: 250 µg/mL
MIC [6]: 4000 µg/mL
MIC [7]: 500 µg/mL
MIC [8, 31]: 125 µg/mL
MIC [9]: 250 µg/mL
MIC [10]: 125 µg/mL
MIC [11]: 250 µg/mL
MIC [12]: 250 µg/mL
MIC [13]: 500 µg/mL
MIC [14, 32]: 500 µg/mL
MIC [15]: 500 µg/mL
MIC [16, 33]: 250 µg/mL
MIC ([17]; Str. pyogenes 4, agar dilution): 250 µg/mL
MIC ([18]; K. pneumoniae A, agar dilution): 500 µg/mL
MIC [19, 34]: 8000 µg/mL
MIC [20, 35]: 500 µg/mL
MIC [21]: 500 µg/mL
MIC [22]: 125 µg/mL
MIC ([23]; agar dilution): 125 µg/mL
MIC [24]: 62.5 µg/mL
MIC [25]: 250 µg/mL

O=C([O-])C1=C(CN2CCN(c3cc4c(cc3F)c(=O)c(C(=O)[O-])cn4C3CC3)CC2)CS[C@@H]2[C@H](NC(=O)C(C(=O)[O-])c3ccccc3)C(=O)N12.[Na+].[Na+].[Na+] (stereo partly drawn) [Compound F, (6R-trans)-3-[[4-(3-Carboxy-1-cyclopropyl-6-fluoro-1,4-dihydro-4-oxo-7-quinolinyl)-1-piperazinyl]methyl]-7-[(carboxyphenylacetyl)amino]-8-oxo-5-thia-1-azabicyclo[4.2.0]oct-2-ene-2-carboxylic acid sodium salt]
MIC ([2]; Enterococcus faecalis, ATCC29212): 32000 µg/mL
MIC ([8]; Streptococcus pneumoniae, 6301): 500 µg/mL
MIC ([14]; Proteus mirabilis, 90): 1000 µg/mL
MIC ([16]; Enterobacter cloacae, 5699): 500 µg/mL
MIC ([17]; Streptococcus pyogenes, 4): 500 µg/mL
MIC ([18]; Klebsiella pneumoniae): 1000 µg/mL
MIC ([19]; Staphylococcus aureus, 67): 8000 µg/mL
MIC ([20]; Serratia marcescens, 1071): 500 µg/mL
half-life [26]: 228 h

CC(C)(O/N=C(\C(=O)N[C@@H]1C(=O)N2C(C(=O)[O-])=C(CN3CCN(c4cc5c(cc4F)c(=O)c(C(=O)O)cn5C4CC4)CC3)CS[C@H]12)c1csc(N)n1)C(=O)O.[Na+] [Compound A, [6R-[6α,7β(Z)]]-7-[[(2-Amino-4-thiazolyl)[(1-carboxy-1-methylethoxy)imino]acetyl]amino]-3-[[4-(3-carboxy-1-cyclopropyl-6-fluoro-1,4-dihydro-4-oxo-7-quinolinyl)-1-piperazinyl]methyl]-8-oxo-5-thia-1-azabicyclo[4.2.0]oct-2-ene-2-carboxylic acid sodium salt]
MIC [1]: 4000 µg/mL
MIC [2, 30]: 8000 µg/mL
MIC [3]: 8000 µg/mL
MIC [4]: 8000 µg/mL
MIC [5]: 125 µg/mL
MIC [6]: 8000 µg/mL
MIC [7]: 2000 µg/mL
MIC [8, 31]: 250 µg/mL
MIC [9]: 1000 µg/mL
MIC [10]: 500 µg/mL
MIC [11]: 8000 µg/mL
MIC [12]: 16000 µg/mL
MIC [13]: 8000 µg/mL
MIC [14, 32]: 2000 µg/mL
MIC [15]: 1000 µg/mL
MIC [16, 33]: 1000 µg/mL
MIC ([17]; Str. pyogenes 4, agar dilution): 250 µg/mL
MIC ([18]; K. pneumoniae A, agar dilution): 500 µg/mL
MIC [19, 34]: 16000 µg/mL
MIC [20, 35]: 1000 µg/mL
MIC [21]: 8000 µg/mL
MIC [22]: 250 µg/mL
MIC ([23]; agar dilution): 250 µg/mL
MIC [24]: 500 µg/mL
MIC [25]: 500 µg/mL
